Structures are written as SMILES.

One may read the IC50 as the concentration that gives 50% inhibition.

In the assay the target is Voltage-dependent L-type calcium channel subunit alpha-1C (Cavia porcellus, UniProt O35505). Description: Inhibition of calcium channel in Cavia porcellus (guinea pig) ileum assessed as inhibition of KCl-induced contraction. The format is tissue-based.
Voltage-dependent L-type calcium channel subunit alpha-1C, sequence (O35505 whole entry): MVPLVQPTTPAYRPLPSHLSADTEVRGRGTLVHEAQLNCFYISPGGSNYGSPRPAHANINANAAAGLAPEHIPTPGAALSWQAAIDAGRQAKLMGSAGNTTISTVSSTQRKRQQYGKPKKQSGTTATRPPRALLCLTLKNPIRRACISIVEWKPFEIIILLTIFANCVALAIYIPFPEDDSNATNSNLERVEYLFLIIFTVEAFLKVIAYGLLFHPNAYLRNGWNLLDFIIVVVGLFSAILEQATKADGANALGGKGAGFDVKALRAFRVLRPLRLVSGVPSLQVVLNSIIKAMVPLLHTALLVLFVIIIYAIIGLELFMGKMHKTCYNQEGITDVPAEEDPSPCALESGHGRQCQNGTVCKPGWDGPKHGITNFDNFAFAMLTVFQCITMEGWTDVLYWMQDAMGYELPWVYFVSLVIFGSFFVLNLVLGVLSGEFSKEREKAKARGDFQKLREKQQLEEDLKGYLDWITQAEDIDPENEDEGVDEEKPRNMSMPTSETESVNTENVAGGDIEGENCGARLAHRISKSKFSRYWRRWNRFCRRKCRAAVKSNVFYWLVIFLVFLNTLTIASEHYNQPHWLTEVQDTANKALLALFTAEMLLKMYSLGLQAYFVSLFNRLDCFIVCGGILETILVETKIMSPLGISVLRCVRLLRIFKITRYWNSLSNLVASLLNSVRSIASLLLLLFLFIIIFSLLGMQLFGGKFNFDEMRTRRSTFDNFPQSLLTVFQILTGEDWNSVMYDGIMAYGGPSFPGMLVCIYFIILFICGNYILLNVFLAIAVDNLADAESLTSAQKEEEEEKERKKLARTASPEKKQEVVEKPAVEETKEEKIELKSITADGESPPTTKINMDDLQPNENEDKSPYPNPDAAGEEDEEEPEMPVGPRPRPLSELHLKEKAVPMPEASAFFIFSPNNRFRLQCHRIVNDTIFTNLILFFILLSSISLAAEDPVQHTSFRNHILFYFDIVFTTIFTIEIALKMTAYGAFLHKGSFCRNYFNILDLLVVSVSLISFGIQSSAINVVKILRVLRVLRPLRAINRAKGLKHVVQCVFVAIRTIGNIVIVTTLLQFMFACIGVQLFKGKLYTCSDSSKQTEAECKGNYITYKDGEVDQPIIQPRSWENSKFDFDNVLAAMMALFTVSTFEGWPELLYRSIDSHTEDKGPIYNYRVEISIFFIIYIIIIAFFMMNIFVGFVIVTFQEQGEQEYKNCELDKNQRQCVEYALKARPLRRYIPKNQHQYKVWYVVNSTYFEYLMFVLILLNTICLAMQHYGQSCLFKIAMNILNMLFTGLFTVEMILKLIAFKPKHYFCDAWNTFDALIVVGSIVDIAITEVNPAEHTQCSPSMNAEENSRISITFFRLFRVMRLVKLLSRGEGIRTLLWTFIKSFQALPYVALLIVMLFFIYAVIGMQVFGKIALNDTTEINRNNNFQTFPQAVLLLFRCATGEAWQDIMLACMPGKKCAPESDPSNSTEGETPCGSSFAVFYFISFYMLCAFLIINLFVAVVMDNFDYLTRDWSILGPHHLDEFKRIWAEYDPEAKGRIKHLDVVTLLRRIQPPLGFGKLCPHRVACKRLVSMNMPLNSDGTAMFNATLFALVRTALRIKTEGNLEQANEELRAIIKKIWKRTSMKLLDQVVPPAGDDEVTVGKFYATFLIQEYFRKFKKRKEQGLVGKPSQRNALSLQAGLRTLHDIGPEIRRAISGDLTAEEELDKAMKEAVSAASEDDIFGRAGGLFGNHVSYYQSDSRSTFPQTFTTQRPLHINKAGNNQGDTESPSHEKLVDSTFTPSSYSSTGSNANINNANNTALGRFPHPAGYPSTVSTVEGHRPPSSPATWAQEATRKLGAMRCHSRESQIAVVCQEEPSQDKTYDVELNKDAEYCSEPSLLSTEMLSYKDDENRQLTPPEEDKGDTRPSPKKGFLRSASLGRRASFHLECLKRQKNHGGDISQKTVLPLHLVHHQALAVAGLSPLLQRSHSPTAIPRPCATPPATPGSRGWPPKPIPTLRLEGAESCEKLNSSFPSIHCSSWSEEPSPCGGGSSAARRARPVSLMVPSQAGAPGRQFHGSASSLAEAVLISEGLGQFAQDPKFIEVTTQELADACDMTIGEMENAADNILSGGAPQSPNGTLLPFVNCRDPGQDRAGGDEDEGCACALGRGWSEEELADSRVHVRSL
Regarding `CCc1nc(C2C(C(=O)OCc3ccccc3)=C(C)NC(C)=C2C(=O)OCc2ccccc2)c(Cl)[nH]1`, the IC50 was 0.906 nM.

As for `CCc1nc(C2C(C(=O)OCCc3ccccc3)=C(C)NC(C)=C2C(=O)OCCc2ccccc2)c(Cl)[nH]1`, the IC50 was 0.0437 nM. For the compound `CCc1nc(C2C(C(=O)OC)=C(C)NC(C)=C2C(=O)OCCc2ccccc2)c(Cl)[nH]1` (stereo not drawn), the concentration for half-maximal inhibition (IC50) is 0.0309 nM. The figure for `CCOC(=O)C1=C(C)NC(C)=C(C(=O)OCCc2ccccc2)C1c1nc(CC)[nH]c1Cl` (stereo not drawn) is 0.0457 nM; for `CCc1nc(Cl)c(C2C(C(=O)OC)=C(C)NC(C)=C2C(=O)OC)[nH]1` it is 0.596 nM.

With `CCOC(=O)C1=C(C)NC(C)=C(C(=O)OCC)C1c1[nH]c(CC)nc1Cl`, the IC50 is 0.158 nM. Consider `CCCOC(=O)C1=C(C)NC(C)=C(C(=O)OCCC)C1c1[nH]c(CC)nc1Cl`, for which the IC50 was 0.13 nM. The result for `CCc1nc(Cl)c(C2C(C(=O)OC(C)C)=C(C)NC(C)=C2C(=O)OC(C)C)[nH]1` reads 0.748 nM. As to `CCc1nc(Cl)c(C2C(C(=O)OCC(C)C)=C(C)NC(C)=C2C(=O)OCC(C)C)[nH]1`, the 50% inhibitory concentration (IC50) was 2.64 nM. The result for `CCc1nc(Cl)c(C2C(C(=O)OC(C)(C)C)=C(C)NC(C)=C2C(=O)OC(C)(C)C)[nH]1` reads 34.2 nM.

As to `CCc1nc(Cl)c(C2C(C(=O)OC3CCCC3)=C(C)NC(C)=C2C(=O)OC2CCCC2)[nH]1`, the IC50 was 0.212 nM. Take `CCc1nc(Cl)c(C2C(C(=O)OC3CCCCC3)=C(C)NC(C)=C2C(=O)OC2CCCCC2)[nH]1`: the IC50 is 0.132 nM.

For `CCc1nc(Cl)c(C2C(C(=O)OCCCc3ccccc3)=C(C)NC(C)=C2C(=O)OCCCc2ccccc2)[nH]1`, the IC50 is 0.0668 nM. As for `CCOC(=O)C1=C(C)NC(C)=C(C(=O)OC)C1c1[nH]c(CC)nc1Cl` (stereo not drawn), the IC50 was 2.02 nM. For the compound `CCCOC(=O)C1=C(C)NC(C)=C(C(=O)OC)C1c1[nH]c(CC)nc1Cl` (stereo not drawn), the IC50 was 0.146 nM. Take `CCc1nc(Cl)c(C2C(C(=O)OC)=C(C)NC(C)=C2C(=O)OC(C)C)[nH]1` (stereo not drawn): the IC50 was 0.488 nM. The result for `CCc1nc(Cl)c(C2C(C(=O)OC)=C(C)NC(C)=C2C(=O)OC(C)(C)C)[nH]1` (stereo not drawn) reads 50.8 nM. In the case of `CCc1nc(Cl)c(C2C(C(=O)OC)=C(C)NC(C)=C2C(=O)OCc2ccccc2)[nH]1` (stereo not drawn), the IC50 is 1.75 nM.

As to `CCCOC(=O)C1=C(C)NC(C)=C(C(=O)OCC)C1c1[nH]c(CC)nc1Cl` (stereo not drawn), the IC50 was 0.543 nM. The figure for `CCOC(=O)C1=C(C)NC(C)=C(C(=O)OC(C)C)C1c1[nH]c(CC)nc1Cl` (stereo not drawn) is 0.564 nM; for `CCOC(=O)C1=C(C)NC(C)=C(C(=O)OC(C)(C)C)C1c1[nH]c(CC)nc1Cl` (stereo not drawn) it is 99.8 nM.

With `CCOC(=O)C1=C(C)NC(C)=C(C(=O)OCC2CCCCC2)C1c1[nH]c(CC)nc1Cl` (stereo not drawn), the concentration for half-maximal inhibition (IC50) is 1.07 nM. As for `CCOC(=O)C1=C(C)NC(C)=C(C(=O)OCc2ccccc2)C1c1[nH]c(CC)nc1Cl` (stereo not drawn), the IC50 was 2.66 nM.
